Assays:
[1] = In vivo acute toxicity, single intraperitoneal injection; set-up: species or system mice; settings: male, CD-1, mouse, in vivo, ip, male CD-1 mice, single intraperitoneal administration, 14 days, Probit analysis
Procedure: (§1) The study of acute toxicity was performed on males of outbred white mice of the CD-1 line at the age of 2–3 months, weighing 20–30 g. The total number of mice participating in the experiment was 300. Mice were obtained from the Research and Production Enterprise Laboratory Animal Farm based at the Branch of Shemyakin and Ovchinnikov Institute of Bioorganic Chemistry of the Russian Academy of Sciences (Pushchino, Russia). The animals were kept in accordance with in standard conditions in a vivarium with 12 h of daylight and free access to food and water. The animals were fed complete feed made according to specifications (protein 22%, fiber 4% max., fat 5% max, ash 9% max, humidity 13.5% max, caloric value 295 kcal/100 g). The studies were conducted with a single parenteral–intraperitoneal (intra-peritoneal) injection, according to the method.
(§2) The substances were introduced in a sterile saline DMSO (40% vol.) solution. Solutions of the substances were prepared immediately before administration. The total volume of the injected liquid was 0.1 mL/10 g of animal weight. As a control, a group of mice was administered under similar conditions an equivalent amount (0.1 mL/10 g, or 10 mL/kg) of a solvent—40% DMSO on sterile saline solution. The substances were administered in doses ranging from 1 to 100 mg/kg; there were six animals in each group. To assess acute toxicity, the animals were monitored 14 days after administration of the substance, assessing their general condition and recording deaths.
(§3) The study of the acute toxicity parameters of six aminophosphonium salts 4a, 4b, 4d, 5a, 5b, and 6b was performed on male outbreed white mice of the CD-1 line. Acute toxicity was determined with a single parenteral (intraperitoneal) administration in sterile saline/DMSO (40% vol.) solution at doses from 1 to 100 mg/kg. To assess acute toxicity, the animals were monitored for 14 days after the introduction of substances, assessing their general condition and recording deaths. Next, lethal doses LD50, LD0, LD16, LD84, and LD100 were calculated using the Probit analysis method. LD0, LD16, LD84, and LD100 are given in Supplementary Material (Table S1).

mice of the CD-1 line = assay: as above; settings: for onset of animal death after administration: doses of LD100; for acute toxicity class: according to the classification [105], parenteral administration
Procedure: as §1, §2, §3

HuTu 80 cells [2] = assay: Mitochondrial membrane potential, JC-10 flow cytometry; format: cell-based, human; settings: HuTu 80, 48-h treatment
Procedure: The cells are prepared as in the Cell Apoptosis Assay section. Cells were detached with trypsin/versene solution (1:3), suspended in PBS, collected at 2000 rpm for 5 min, then washed twice with ice-cold PBS, followed by resuspension in JC-10 (10 μg/mL) and incubation at 37 °C for 10 min. The cells were then washed three times and suspended in PBS, and JC-10 fluorescence was observed by flow cytometry (Guava Easy Cyte).
Most forms of apoptosis in mammals are realized not through cell death receptors but through the mitochondrial pathway. In this case, the outer membrane of the mitochondria breaks, and soluble proteins of the intermembrane space enter the cytoplasm. The permeability of the outer membrane of mitochondria is a finely regulated process, and its increase is a key event in triggering apoptosis. Induction of apoptosis by compounds 4b, 5b, 6a, and 8 at concentrations of IC50/2 and IC50 via the mitochondrial pathway on the HuTu 80 cell line was studied by flow cytometry using the fluorescent dye JC-10 from the Mitochondria Membrane Potential Kit.

HuTu 80 cells [3] = assay: Intracellular ROS, CellROX Deep Red flow cytometry; format: cell-based, human; settings: HuTu 80, IC50/2 and IC50, compared with the control
Procedure: ROS generation was investigated using a flow cytometry assay and the CellROX® Deep Red flow cytometry kit. For this, HuTu 80 cells were harvested at 2000 rpm for 5 min and then washed twice with ice-cold PBS, followed by resuspension in 0.1 mL of medium without FBS, to which was added 0.2 μL of CellROX® Deep Red and incubated at 37 °C for 30 min. After three washes, cells were suspended in PBS, and the cell production of ROS was immediately monitored using a flow cytometer (Guava easy Cyte).

caspase 9 = assay: Caspase 9 ELISA in cell lysates; format: cell-based, human; settings: HuTu 80 lysates, IC50/2 and IC50, compared with the control
Procedure: In vitro quantitative measurement of caspase-9 and caspase-8 was performed using ELISA kits (ELISA Kit for Caspase 9 and ELISA Kit for Caspase 8, Human Cloud-Clone Corp., Wuhan, China). The analysis was carried out according to the manufacturer’s instructions. Samples were standardized for total protein content (1 mg/mL). Protein concentration was determined with Coomassie-based assays using Bredford Dye Reagent (Bio-Rad, Hercules, CA, USA). The absorbance was measured using a microplate reader, EPOCH (BioTek Instruments, Inc., Winooski, VT, USA), at a wavelength of 450 ± 10 nm. Lysates of untreated HuTu 80 cells were used as controls.
To confirm that apoptosis induced by compounds 4b, 5b, 6a, and 8 proceeds along the internal (mitochondrial) pathway, studies were conducted to determine the enzymatic activity of the early apoptosis key markers—caspase 9 and caspase 8 using ELISA kits. The kits are sandwich enzyme immunoassays for in vitro quantitative measurement of Caspase 8 and Caspase 9 in cell lysates, rat tissue homogenates, and other biological fluids. Caspase 9 plays a key role in the mitochondrial signaling pathway of apoptosis induction. The activation of caspase 8 characterizes the external (receptor-dependent) pathway of apoptosis. HuTu 80 cells not treated with the tested compounds were used as a control.

[4] = system: human volunteer donor erythrocytes; assay: Hemolytic assay; format: cell-based; settings: hemolysis in 50% of human erythrocytes, 1 h, 37 °C
Procedure: The hemolytic activity of Aminophosphonium Salts was assessed by comparing the optical density of a solution containing the test compound with the optical density of blood at 100% hemolysis. Healthy human volunteer donor erythrocytes were used as the object of the study. Red blood cells with EDTA (1.8 mg/mL) were washed three times with saline (0.9% NaCl), centrifuged for 10 min at 800× g rpm, and resuspended in saline (0.9% NaCl) to a concentration of 10%. The tested concentrations (0.1–100 μM) were prepared in physiological solution (0.9% NaCl) (with the addition of 5% DMSO). Compounds at the appropriate dilution (450 μL) were added to 50 μL of a 10% red blood cell suspension. Samples were incubated for 1 h at 37 °C and centrifuged for 10 min at 2000 rpm. The release of hemoglobin was controlled by measuring the optical density of the supernatant on an InvitroLogic microplate reader at λ = 540 nm. A control sample corresponding to zero hemolysis (blank experiment) was prepared by adding 50 μL of a 10% red blood cell suspension to 450 μL of saline (0.9% NaCl). A control sample corresponding to 100% hemolysis was prepared by adding 50 μL of a 10% red blood cell suspension to 450 μL of distilled water. Blood was taken at the Clinic of the Federal Research Center “Kazan Scientific Center of the Russian Academy of Sciences” from healthy donors with their personal consent.

| SMILES | LD50 at 14 days [1] [mg/kg] | onset of animal death after administration (mice of the CD-1 line; CD-1 mice, i.p.) [h] | acute toxicity class (mice of the CD-1 line) | LD50 (mice of the CD-1 line; male CD-1 mice, single intraperitoneal administration, 14 days, Probit analysis) | effect on mitochondrial membrane potential (in words) (HuTu 80 cells [2]) | ROS production, CellROX Deep Red fluorescence (in words) (HuTu 80 cells [3]) | concentration of caspase 9 (in words) (caspase 9) | HC50 [4] [µM] | death in animals (mice of the CD-1 line; CD-1 mice, i.p., dose of 150 mg/kg) [%] | time to death (mice of the CD-1 line; CD-1 mice, i.p., doses of 200 and 400 mg/kg) [min] |
| --- | --- | --- | --- | --- | --- | --- | --- | --- | --- | --- |
| CCCCCCCCCC[P+](N(CC)CC)(N(CC)CC)N(CC)CC [4d, Decyltris(diethylamino)phosphonium iodide] | 6.9 | 1 to 2 | highly toxic | 5.9 (3.7÷7.6) mg/kg |  |  |  |  |  |  |
| CCCCCCCC[P+](c1ccccc1)(c1ccccc1)c1ccccc1 [compound 8, Octyltriphenylphosphonium iodide, reference compound] |  |  |  |  | decrease in the mitochondrial membrane potential | increase in the fluorescence intensity | significantly increased |  |  |  |
| CCCCCC[P+](c1ccccc1)(c1ccccc1)N(CC)CC [6a, (Diethylamino)(hexyl)diphenylphosphonium iodide] |  |  |  |  | decrease in the mitochondrial membrane potential | increase in the fluorescence intensity | significantly increased | > 100 |  |  |
| CCCCCCCC[P+](c1ccccc1)(c1ccccc1)N(CC)CC [6b, (Diethylamino)(octyl)diphenylphosphonium iodide] | 102 |  | moderately toxic |  |  |  |  | >100 | 100 | ≤ 10 |
| CCCCCCCC[P+](c1ccccc1)(N(CC)CC)N(CC)CC [5b, Bis(diethylamino)(octyl)(phenyl)phosphonium iodide] | 27.9 | 1 to 2 | moderately toxic |  | decrease in the mitochondrial membrane potential | increase in the fluorescence intensity | significantly increased | >100 |  |  |
| CCCCCCCC[P+](N(CC)CC)(N(CC)CC)N(CC)CC [4b, Tris(diethylamino)(octyl)phosphonium iodide] | 43.4 | 1 to 2 | moderately toxic |  | decrease in the mitochondrial membrane potential | increase in the fluorescence intensity | significantly increased | >100 |  |  |

From publication PMC10649961, “Novel Mitochondria-Targeted Amphiphilic Aminophosphonium Salts and Lipids Nanoparticles: Synthesis, Antitumor Activity and Toxicity” (Nanomaterials, 2023)
